Assay results: US20150157739A1, “Imidazo[2,1]thiazol-3-one derivatives” (Hoffmann-La Roche Inc., priority 2012, published 2015)

Tests used:
[1] = target: T1, aggregated recombinant human-microtubule associated protein Tau (Homo sapiens, UniProt P10636); experiment: Thiazin-red R displacement fluorescence assay on aggregated Tau; format: binding; conditions: displacement of Thiazin-red R from aggregated Tau; compound 0.3 nM to 10000 nM; 30 min room temperature; Ex 531 nm/Em 595 nm
T1 construct: Recombinant human-microtubule associated protein Tau purified from E. coli is aggregated at a concentration of 5 μM with Arachidonic Acid (100 μM) in Tris 10 mM pH8, 24 h at 37° C
Protocol: (§1) Assay for Determination of […] for Tau and A-Beta
(§2) Recombinant human-microtubule associated protein Tau purified from E. coli is aggregated at a concentration of 5 μM with Arachidonic Acid (100 μM) in Tris 10 mM pH8, 24 h at 37° C. Synthetic Aβ40 is aggregated at a concentration of 50 μM with Arachidonic Acid (100 μM) in Tris 10 mM pH8, for three days at 37° C., under shaking at 150 rpm.
(§3) A saturation analysis of Thiazin-red R to the aggregated proteins is done to determine the affinity (Kd) of the Thiazin-red R to the aggregated protein.
(§4) Thiazin-red R will be added at the concentration corresponding to the Kd to the respective aggregated protein binding site, to induce a fluorescent signal that can be inhibited by the addition of a displacer compound.
(§5) In parallel, auto fluorescence of the compound is measured together with the aggregated proteins, but without Thiazin-red R. As negative control, ligand and aggregated protein is used and as positive control, Thiazin-red R, reference compound with known activity and aggregated protein is used.
(§6) Assay is performed in Perkin Elmer OptiPlate 384, black, 45 ul assay volume, assay buffer is DPBS no CaCl2 no MgCl2 (GIBCO N. 14020). Tested compounds are diluted in DMSO and 2 μl is added to the assay ([…]). Assay is started by the addition of the aggregated protein (competitive condition). Plates are shortly shacked (1 min with Sterico variomag teleshake) and incubated for 30 min at room temperature. Measurement are done with En:Vision (Perkin Elmer), at Excitation 531 nm/Emission 595 nm.

[2] = target: T2, aggregated synthetic Aβ40 (Homo sapiens, UniProt P05067); experiment: Thiazin-red R displacement fluorescence assay on aggregated A-beta; format: binding; conditions: displacement of Thiazin-red R from aggregated Aβ40; compound 0.3 nM to 10000 nM; 30 min room temperature; Ex 531 nm/Em 595 nm
T2 construct: Synthetic Aβ40 is aggregated at a concentration of 50 μM
Protocol: as §1, §2, §3, §4, §5, §6

T2 sequence (P05067 672-711 limits assumed): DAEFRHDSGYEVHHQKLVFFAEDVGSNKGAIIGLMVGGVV
T1 sequence (P10636 whole entry): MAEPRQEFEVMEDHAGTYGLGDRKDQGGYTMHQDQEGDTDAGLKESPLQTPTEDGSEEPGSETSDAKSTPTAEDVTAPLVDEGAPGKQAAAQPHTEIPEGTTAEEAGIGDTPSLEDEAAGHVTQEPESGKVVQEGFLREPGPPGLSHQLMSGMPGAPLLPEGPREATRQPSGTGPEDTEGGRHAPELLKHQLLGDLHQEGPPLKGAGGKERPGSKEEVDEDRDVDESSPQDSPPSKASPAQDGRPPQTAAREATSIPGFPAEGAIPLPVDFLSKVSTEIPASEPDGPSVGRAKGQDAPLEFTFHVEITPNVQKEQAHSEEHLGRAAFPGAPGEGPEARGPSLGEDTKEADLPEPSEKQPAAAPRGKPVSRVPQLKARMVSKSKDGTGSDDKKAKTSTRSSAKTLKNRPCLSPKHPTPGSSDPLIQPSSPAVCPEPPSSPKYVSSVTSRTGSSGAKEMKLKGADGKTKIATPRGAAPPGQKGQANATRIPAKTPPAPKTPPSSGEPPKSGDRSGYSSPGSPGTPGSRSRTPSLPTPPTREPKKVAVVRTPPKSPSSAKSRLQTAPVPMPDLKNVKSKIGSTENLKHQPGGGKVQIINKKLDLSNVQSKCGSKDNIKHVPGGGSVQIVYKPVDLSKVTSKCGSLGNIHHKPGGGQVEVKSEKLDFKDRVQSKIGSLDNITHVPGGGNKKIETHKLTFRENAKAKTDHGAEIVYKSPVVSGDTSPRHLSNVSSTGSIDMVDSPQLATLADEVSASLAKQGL

Compound `CCCOc1cc(/C=c2\sc3nc(-c4ccncc4)cn3c2=O)cc(Cl)c1O` [Example 111, 2-[1-(3-Chloro-4-hydroxy-5-propoxy-phenyl)-meth-(Z)-ylidene]-6-pyridin-4-yl-imidazo[2,1-b]thiazol-3-one] has an IC50 [1] of 17 nM and an IC50 [2] of 1450 nM.
For `CCc1cc(/C=c2\sc3nc(-c4cccc(OC(F)(F)F)c4)cn3c2=O)cc(OC)c1O` [Example 40, 2-[1-(3-Ethyl-4-hydroxy-5-methoxy-phenyl)-meth-(Z)-ylidene]-6-(3-trifluoromethoxy-phenyl)-imidazo[2,1-b]thiazol-3-one], the IC50 [1] was 701 nM and the IC50 [2] was > 10000 nM.
For `COc1cc(/C=c2\sc3nc(-c4ccc(N(C)C)cc4)cn3c2=O)cc(Cl)c1O` [Example 93, 2-[1-(3-Chloro-4-hydroxy-5-methoxy-phenyl)-meth-(Z)-ylidene]-6-(4-(dimethylamino)phenyl)-imidazo[2,1-b]thiazol-3-one], the IC50 [1] was 30 nM and the IC50 [2] was 29 nM.
In the case of `COc1cc(/C=c2\sc3nc(-c4cccc(N5CCCC5=O)c4)cn3c2=O)cc(Cl)c1O` [Example 94, 2-[1-(3-Chloro-4-hydroxy-5-methoxy-phenyl)-meth-(Z)-ylidene]-6-[3-(2-oxo-pyrrolidin-1-yl)-phenyl]-imidazo[2,1-b]thiazol-3-one], the IC50 [1] is reported as 42 nM and the IC50 [2] is reported as 3890 nM.
With `COc1cc(/C=c2\sc3nc(-c4cc(C)nc(C)c4)cn3c2=O)cc(Cl)c1O` [Example 63, 2-[1-(3-Chloro-4-hydroxy-5-methoxy-phenyl)-meth-(Z)-ylidene]-6-(2,6-dimethyl-pyridin-4-yl)-imidazo[2,1-b]thiazol-3-one] the IC50 [1] was 13 nM and the IC50 [2] was 418 nM.
`CNC(=O)c1ccc(-c2cn3c(=O)/c(=C/c4cc(Cl)c(O)c(OC)c4)sc3n2)cc1` [Example 114, 4-{2-[1-(3-Chloro-4-hydroxy-5-methoxy-phenyl)-meth-(Z)-ylidene]-3-oxo-2,3-dihydro-imidazo[2,1-b]thiazol-6-yl}-N-methyl-benzamide] gave an IC50 [1] of 6 nM and an IC50 [2] of 352 nM.
For `COc1cc(/C=c2\sc3nc(-c4cccc(OC(F)(F)F)c4)cn3c2=O)cc(Br)c1O` [Example 37, 2-[1-(3-Bromo-4-hydroxy-5-methoxy-phenyl)-meth-(Z)-ylidene]-6-(3-trifluoromethoxy-phenyl)-imidazo[2,1-b]thiazol-3-one], the IC50 [1] was 6 nM and the IC50 [2] was 552 nM.
Work on `COc1cc(/C=c2\sc3nc(-c4ccc(Cl)cc4)cn3c2=O)cc(OC(C)C)c1O` [Example 30, 6-(4-Chloro-phenyl)-2-[1-(4-hydroxy-3-isopropoxy-5-methoxy-phenyl)-meth-(Z)-ylidene]-imidazo[2,1-b]thiazol-3-one] yielded an IC50 [1] of 6 nM and an IC50 [2] of 16 nM.
Work on `COc1cc(/C=c2\sc3nc(-c4cccc(C#N)c4)cn3c2=O)cc(F)c1O` [Example 73, 3-{2-[1-(3-Fluoro-4-hydroxy-5-methoxy-phenyl)-meth-(Z)-ylidene]-3-oxo-2,3-dihydro-imidazo[2,1-b]thiazol-6-yl}-benzonitrile] yielded an IC50 [2] of 13 nM.
`COc1cc(/C=c2\sc3nc(-c4cccc(C)c4)cn3c2=O)cc(OC)c1O` [Example 20, 2-[1-(4-Hydroxy-3,5-dimethoxy-phenyl)-meth-(Z)-ylidene]-6-m-tolyl-imidazo[2,1-b]thiazol-3-one] showed an IC50 [1] of 3 nM and an IC50 [2] of 20 nM.
`COc1cc(/C=c2\sc3nc(-c4ccc(C(=O)OCCCF)cc4)cn3c2=O)cc(Cl)c1O` [Example 149, 4-{2-[1-(3-Chloro-4-hydroxy-5-methoxy-phenyl)-meth-(Z)-ylidene]-3-oxo-2,3-dihydro-imidazo[2,1-b]thiazol-6-yl}-benzoic acid 3-fluoro-propyl ester] was tested, and the IC50 [1] was 2 nM and the IC50 [2] was 168 nM.
In the case of `COc1cc(/C=c2\sc3nc(-c4cccc(C(F)(F)F)c4)cn3c2=O)cc(F)c1O` [Example 41, 2-[1-(3-fluoro-4-hydroxy-5-methoxy-phenyl)-meth-(Z)-ylidene]-6-(3-(trifluoromethyl)-phenyl)-imidazo[2,1-b]thiazol-3-one], the IC50 [1] is reported as 16 nM and the IC50 [2] is reported as 1810 nM.
Work on `COc1cc(/C=c2\sc3nc(-c4cccnc4)cn3c2=O)cc(Cl)c1O` [Example 78, 2-[1-(3-Chloro-4-hydroxy-5-methoxy-phenyl)-meth-(Z)-ylidene]-6-(pyridin-3-yl)-imidazo[2,1-b]thiazol-3-one] yielded an IC50 [1] of 10.4 nM and an IC50 [2] of 700 nM.
Work on `COc1cc(/C=c2\sc3nc(-c4ccc(N5CCOCC5)cc4)cn3c2=O)cc(Cl)c1O` [Example 92, 2-[1-(3-Chloro-4-hydroxy-5-methoxy-phenyl)-meth-(Z)-ylidene]-6-(4-morpholinophenyl)-imidazo[2,1-b]thiazol-3-one] yielded an IC50 [1] of 39 nM and an IC50 [2] of 482 nM.
`O=c1/c(=C/c2cc(F)c(O)c(OCCCF)c2)sc2nc(-c3ccncc3)cn12` [Example 124, 2-[1-(3-Fluoro-5-(3-fluoropropoxy)-4-hydroxy-phenyl)-meth-(Z)-ylidene]-6-pyridin-4-yl-imidazo[2,1-b]thiazol-3-one] gave an IC50 [1] of 17 nM and an IC50 [2] of 1230 nM.
With `COc1cc(/C=c2\sc3nc(-c4cccc(C(=O)N(C)CCF)c4)cn3c2=O)cc(Cl)c1O` [Example 120, 3-{2-[1-(3-Chloro-4-hydroxy-5-methoxy-phenyl)-meth-(Z)-ylidene]-3-oxo-2,3-dihydro-imidazo[2,1-b]thiazol-6-yl}-N-(2-fluoro-ethyl)-N-methyl-benzamide] the IC50 [1] was 49 nM.
`COc1cc(/C=c2\sc3nc(-c4cccc(Cl)c4)cn3c2=O)cc(F)c1O` [Example 39, 2-[1-(3-fluoro-4-hydroxy-5-methoxy-phenyl)-meth-(Z)-ylidene]-6-(3-chloro-phenyl)-imidazo[2,1-b]thiazol-3-one] showed an IC50 [1] of 11 nM and an IC50 [2] of 412 nM.
For `COc1cc(/C=c2\sc3nc(-c4ccccc4)cn3c2=O)cc(Cl)c1O` [Example 60, 2-[1-(3-Chloro-4-hydroxy-5-methoxy-phenyl)-meth-(Z)-ylidene]-6-phenyl-imidazo[2,1-b]thiazol-3-one], the IC50 [1] was 25 nM and the IC50 [2] was 851 nM.
Work on `C=CCOc1cccc(-c2cn3c(=O)/c(=C/c4cc(Cl)c(O)c(OC)c4)sc3n2)c1` [Example 80, 2-[1-(3-Chloro-4-hydroxy-5-methoxy-phenyl)-meth-(Z)-ylidene]-6-(3-(allyloxy)phenyl)-imidazo[2,1-b]thiazol-3-one] yielded an IC50 [1] of 6 nM and an IC50 [2] of 20 nM.
`COc1cc(/C=c2\sc3nc(-c4ccccc4C)cn3c2=O)cc(Cl)c1O` [Example 10, 2-[1-(3-Chloro-4-hydroxy-5-methoxy-phenyl)-meth-(Z)-ylidene]-6-o-tolyl-imidazo[2,1-b]thiazol-3-one] was tested, and the IC50 [1] was 28 nM and the IC50 [2] was 1220 nM.
`COc1ccccc1-c1cn2c(=O)/c(=C/c3cc(Cl)c(O)c(OC)c3)sc2n1` [Example 55, 2-[1-(3-Chloro-4-hydroxy-5-methoxy-phenyl)-meth-(Z)-ylidene]-6-(2-methoxy-phenyl)-imidazo[2,1-b]thiazol-3-one] was tested, and the IC50 [1] was 103 nM.
In the case of `COc1cc(/C=c2\sc3nc(-c4cccc(C#N)c4)cn3c2=O)cc(F)c1O` [Example 38, 3-{2-[1-(3-Fluoro-4-hydroxy-5-methoxy-phenyl)-meth-(Z)-ylidene]-3-oxo-2,3-dihydro-imidazo[2,1-b]thiazol-6-yl}-benzonitrile], the IC50 [2] is reported as > 10000 nM.
Compound `COc1cc(/C=c2\sc3nc(-c4ccccc4OCCF)cn3c2=O)cc(Cl)c1O` [Example 83, 2-[1-(3-Chloro-4-hydroxy-5-methoxy-phenyl)-meth-(Z)-ylidene]-6-(2-(2-fluoroethoxyl)phenyl)-imidazo[2,1-b]thiazol-3-one] has an IC50 [1] of 173 nM.
Compound `COc1cc(/C=c2\sc3nc(-c4ccccc4OCCOCCOCCF)cn3c2=O)cc(Cl)c1O` [Example 96, 2-[1-(3-Chloro-4-hydroxy-5-methoxy-phenyl)-meth-(Z)-ylidene]-6-(2-{2-[2-(2-fluoro-ethoxy)-ethoxy]-ethoxy}-phenyl)-imidazo[2,1-b]thiazol-3-one] has an IC50 [1] of 102 nM.
With `COc1cc(/C=c2\sc3nc(-c4cccc(C#N)c4)cn3c2=O)cc(OC)c1O` [Example 50, 3-{2-[1-(4-Hydroxy-3,5-dimethoxy-phenyl)-meth-(Z)-ylidene]-3-oxo-2,3-dihydro-imidazo[2,1-b]thiazol-6-yl}-benzonitrile] the IC50 [1] was 7 nM.
For `COc1cc(/C=c2\sc3nc(-c4cc(F)ccc4F)cn3c2=O)cc(Cl)c1O` [Example 56, 2-[1-(3-Chloro-4-hydroxy-5-methoxy-phenyl)-meth-(Z)-ylidene]-6-(2,5-difluoro-phenyl)-imidazo[2,1-b]thiazol-3-one], the IC50 [1] was 27 nM.
Work on `COc1cc(/C=c2\sc3nc(-c4cccc(OC(F)(F)F)c4)cn3c2=O)cc(F)c1O` [Example 35, 2-[1-(3-Fluoro-4-hydroxy-5-methoxy-phenyl)-meth-(Z)-ylidene]-6-(3-trifluoromethoxy-phenyl)-imidazo[2,1-b]thiazol-3-one] yielded an IC50 [1] of 13 nM.
